Measurements as given in patent US20180185370A1, “PYRAZINOQUINAZOLINONE DERIVATIVES WITH ANTIBACTERIAL ACTIVITY, METHODS AND USES THEREOF” (UNIVERSIDADE DO PORTO, priority 2015, published 2018).
≈ marks a conversion by molar mass, not a printed value.

What was measured:
[1] = test system: S. aureus and E. faecalis strains; assay: Antibacterial susceptibility testing; assay type: cell-based
Procedure: (§1) Bacterial strains and growth conditions. Five reference strains, Staphylococcus aureus ATCC 25923, Bacillus subtilis ATCC 6633, E. faecalis ATCC 29212, Escherichia coli ATCC 25922 and Pseudomonas aeruginosa ATCC 27853, and three multidrug-resistant isolates from environment, S. aureus B1 (a MRSA isolated from public buses), Enterococcus faecalis W1 (a VRE isolated from river water) and E. coli G1 (isolated from seagull feces) were used. Bacteria were grown overnight at 37° C. in Mueller-Hinton agar (MH—BioKar diagnostics, Allonne, France) prior to obtain be used in the subsequently described bioassays.
(§2) Antibacterial susceptibility testing. The minimum inhibitory concentration (MIC) values of the compounds of FIGS. 1D, 1E, 1G, 1H (equation i-iv) and 11 (equations v-x) were determined, in particular, by a broth microdilution technique, following the recommendations of the Clinical and Laboratory Standards Institute. Stock solutions of 10 mg/ml in DMSO were used to prepare in-test concentrations ranging from 2 to 256 μg/ml. Ciprofloxacin in the concentration range from 0.03125 to 16 μg/ml was used, in particular, as control drug in the experiment. The MIC was defined as the lowest concentration of compound that has inhibited the visible growth. The minimum bactericidal concentration (MBC) was determined by spreading on MH plates, 10 μL collected from the wells corresponding to the MIC and to higher concentrations, with further incubation for 24 h at 37° C.; the lowest concentration at which no growth occurred on MH was defined as the MBC.

P. aeruginosa ATCC 27853 = assay: Antibacterial susceptibility testing, broth microdilution (MIC); assay type: cell-based, Pseudomonas aeruginosa
Procedure: as §1, §2

E. faecalis W1 [2] = assay: Biofilm inhibitory and biofilm eradication concentrations on 24-h mature biofilms; assay type: cell-based, Enterococcus faecalis
Procedure: (§3) Determination of neofiscalin A biofilm inhibitory and biofilm eradication concentrations. The efficacy of neofiscalin A on 24-h mature biofilms of S. aureus B1 and E. faecalis W1 was also evaluated, in particular, by determining the BIC and the BEC. […] The optical density at 595 nm was measured at time 0 and after incubation for 24 h at 37° C. The BIC was determined as the lowest concentration of the compound inhibiting growth in the supernatant fluid, confirmed by no increase in the optical density compared with the initial reading. The BEC was determined as the lowest concentration that prevented regrowth of biofilm cells on tryptic soy agar plates.

S. aureus ATCC 25923 = assay: Antibacterial susceptibility testing, broth microdilution (MIC/MBC); assay type: cell-based, Staphylococcus aureus
Procedure: as §1, §2

S. aureus B1 (MRSA) = assay: as above; assay type: cell-based, Staphylococcus aureus; conditions: S. aureus B1 (MRSA)
Procedure: as §1, §2

E. faecalis W1 (VRE) = assay: as above; assay type: cell-based, Enterococcus faecalis; conditions: E. faecalis W1 (VRE)
Procedure: as §1, §2

E. faecalis ATCC 29212 = assay: as above; assay type: cell-based, Enterococcus faecalis
Procedure: as §1, §2

E. coli ATCC 25922 = assay: Antibacterial susceptibility testing, broth microdilution (MIC); assay type: cell-based, Escherichia coli
Procedure: as §1, §2

[3] = test system: S. aureus ATCC 25923, E. faecalis ATCC 29212, S. aureus B1 and E. faecalis W1; assay: Inhibition of biofilm formation, crystal violet assay; assay type: cell-based; conditions: for biofilm formation (biomass, crystal violet): 24 h
Procedure: The efficacy of neofiscalin A was also evaluated in hampering the biofilm formation. Neofiscalin A, in particular, at concentrations of 2×MIC, MIC, ½×MIC and ¼×MIC was added to bacterial suspensions of 1×10^6 CFU/ml in Tryptic Soy Broth (TSB—BioKar diagnostics, Allonne, France) of S. aureus ATCC 25923, E. faecalis ATCC 29212, S. aureus B1 and E. faecalis W1. Bacterial suspensions in absence of the compound were used as controls. Biofilm formation was induced, in particular, in 96-well flat-bottomed microtiter plates (200 μL/well) for 24 h at 37° C. After that time, biofilm biomass was quantified through the crystal violet assay as follows: the planktonic phase was discharged, then the biofilm was stained with 0.5% crystal violet for 5 min, rinsed with water, air dried and eluted with acetic acid 33% (v/v). The optical density was measured at 595 nm (0D595) using a microplate reader (iMark™ microplate absorbance reader, Bio-Rad Laboratories, Hercules, Calif., USA). Two independent experiments were performed in triplicate for each experimental condition. The statistical significance of the difference between biofilm controls and biofilms in the presence of different concentrations of compounds was evaluated using Student's t test. In both cases, probability levels <0.05 were considered statistically significant. Additionally, a microscopic visualization of the biofilms of S. aureus B1 and E. faecalis W1 was performed, in particular, using the Live/Dead BacLight viability kit (Life Technologies—Molecular Probes, Carlsbad, Calif., USA). Biofilms were formed, in particular, in 35-mm diameter polystyrene plates using TSB (control) and TSB supplemented with the MIC or ¼×MIC of neofiscalin A. After 24 h at 37° C., the planktonic phase was removed from each plate and the biofilms were washed with PBS, stained with the appropriate mixture of SYTO 9 and propidium iodide stains and incubated for 20 min at room temperature, in particular 20-25° C., in the dark; then, biofilms were rinsed and examined under a fluorescence microscope (BX41 Microscope, Olympus America Inc., Center Valley, Pa., USA). Images were recorded at an emission wavelength of 500 nm for SYTO 9 (green fluorescence) and of 635 nm for propidium iodide (red fluorescence).

S. aureus B1 [4] = assay: Biofilm metabolic activity after treatment, MTT; assay type: cell-based, Staphylococcus aureus; conditions: 24-h biofilms of S. aureus B1 treated for 24 h with 200 μg/ml
Procedure: (§4) Evaluation of the biofilm metabolic activity after treatment with different concentrations of neofiscalin A. Twenty four-hours biofilms of S. aureus B1 and E. faecalis W1 formed as above described were subsequently treated with high concentrations of neofiscalin A, in particular up to 25×MIC. After 24 h of incubation at 37° C., the bacterial metabolic activity of biofilms was quantified using the 3-(4,5-dimethylthiazole-2-yl)-2,5-diphenyl tetrazolium bromide (MTT, Sigma-Aldrich, St Louis, USA). MTT is used to assess cell viability as a function of redox potential. Actively respiring cells convert the water-soluble MU to an insoluble purple formazan. The formazan is then solubilized and its concentration determined by optical density. In this assay, biofilms were treated with MU (0.5 mg/ml) for 2 h at 37° C. in the dark. DMSO was used to extract the formazan dye product and then the absorbance at 550 nm was measured.

B. subtilis ATCC 6633 = assay: Antibacterial susceptibility testing, broth microdilution (MIC/MBC); assay type: cell-based, Bacillus subtilis
Procedure: as §1, §2

[5] = test system: S. aureus B1 and E. faecalis W1; assay: Microscopic visualization of biofilms, Live/Dead staining; assay type: cell-based; conditions: 24 h
Procedure: The efficacy of neofiscalin A was also evaluated in hampering the biofilm formation. Neofiscalin A, in particular, at concentrations of 2×MIC, MIC, ½×MIC and ¼×MIC was added to bacterial suspensions of 1×10^6 CFU/ml in Tryptic Soy Broth (TSB—BioKar diagnostics, Allonne, France) of S. aureus ATCC 25923, E. faecalis ATCC 29212, S. aureus B1 and E. faecalis W1. Bacterial suspensions in absence of the compound were used as controls. Biofilm formation was induced, in particular, in 96-well flat-bottomed microtiter plates (200 μL/well) for 24 h at 37° C. After that time, biofilm biomass was quantified through the crystal violet assay as follows: the planktonic phase was discharged, then the biofilm was stained with 0.5% crystal violet for 5 min, rinsed with water, air dried and eluted with acetic acid 33% (v/v). The optical density was measured at 595 nm (0D595) using a microplate reader (iMark™ microplate absorbance reader, Bio-Rad Laboratories, Hercules, Calif., USA). Two independent experiments were performed in triplicate for each experimental condition. The statistical significance of the difference between biofilm controls and biofilms in the presence of different concentrations of compounds was evaluated using Student's t test. […] Images were recorded at an emission wavelength of 500 nm for SYTO 9 (green fluorescence) and of 635 nm for propidium iodide (red fluorescence).

S. aureus B1 [6] = assay: Biofilm inhibitory and biofilm eradication concentrations on 24-h mature biofilms; assay type: cell-based, Staphylococcus aureus
Procedure: as §3

E. faecalis W1 [7] = assay: Biofilm metabolic activity after treatment, MTT; assay type: cell-based, Enterococcus faecalis; conditions: 24-h biofilms of E. faecalis W1 treated for 24 h with 200 μg/ml
Procedure: as §4

CC(C)[C@@H]1NC(=O)[C@@H](C[C@]2(O)c3ccccc3N3C(=O)[C@@H](C)N[C@H]32)n2c1nc1ccccc1c2=O [FIG. 1I (eq. ix), neofiscalin A]
MIC value ([1]; S. aureus and E. faecalis strains, including multidrug-resistant isolates (MRSA, VRE)): 8 mg/L (≈ 16.9 µM)
MBC relative to the MIC ([1]; Table 3 versus Table 2): usually four times higher than the MIC
antibacterial activity ([1]; reference strains and multidrug-resistant isolates, highest concentration tested 256 μg/ml): presented antibacterial activity against Gram-positive bacteria
Minimum inhibitory concentration-MIC (P. aeruginosa ATCC 27853): >256 mg/L
biofilm inhibitory concentration (BIC) (E. faecalis W1 [2]; 24-h biofilms of E. faecalis W1 (VRE)): 80 µg/mL
biofilm eradication concentration (BEC) (E. faecalis W1 [2]; 24-h biofilms of E. faecalis W1, higher than 25×MIC): > 200 µg/mL
Minimum bactericidal concentration-MBC (S. aureus ATCC 25923): 16 mg/L (≈ 33.8 µM)
Minimum inhibitory concentration-MIC (S. aureus ATCC 25923): 8 mg/L (≈ 16.9 µM)
Minimum bactericidal concentration-MBC (S. aureus B1 (MRSA)): 32 mg/L (≈ 67.6 µM)
Minimum inhibitory concentration-MIC (S. aureus B1 (MRSA)): 8 mg/L (≈ 16.9 µM)
Minimum bactericidal concentration-MBC (E. faecalis W1 (VRE)): 32 mg/L (≈ 67.6 µM)
Minimum inhibitory concentration-MIC (E. faecalis W1 (VRE)): 8 mg/L (≈ 16.9 µM)
Minimum bactericidal concentration-MBC (E. faecalis ATCC 29212): 32 mg/L (≈ 67.6 µM)
Minimum inhibitory concentration-MIC (E. faecalis ATCC 29212): 8 mg/L (≈ 16.9 µM)
Minimum inhibitory concentration-MIC (E. coli ATCC 25922): >256 mg/L
biofilm formation (biomass, crystal violet) ([3]; 2×MIC and MIC): none of the strains was able to form a biofilm
biofilm formation ([3]; MRSA and VRE strains): inhibit the biofilm formation
biofilm formation (biomass, crystal violet) ([3]; ¼×MIC): allowed the formation of a larger biofilm, but smaller than that observed in the control group
biofilm formation (biomass, crystal violet) ([3]; ½×MIC): the strains did not succeed in forming much biofilm
reduction of metabolic activity of biofilm (MTT) (S. aureus B1 [4]): ~50%
Minimum bactericidal concentration-MBC (B. subtilis ATCC 6633): >256 mg/L
Minimum inhibitory concentration-MIC (B. subtilis ATCC 6633): 128 mg/L (≈ 270 µM)
biofilm formation (Live/Dead microscopy) ([5]; at the MIC): no biofilm was produced
biofilm formation (Live/Dead microscopy) ([5]; ¼×MIC): a biofilm was formed (FIG. 4C), though it was not as large as in the control
biofilm inhibitory concentration (BIC) (S. aureus B1 [6]; 24-h biofilms of S. aureus B1 (MRSA)): 96 µg/mL
biofilm eradication concentration (BEC) (S. aureus B1 [6]; 24-h biofilms of S. aureus B1, higher than 25×MIC): > 200 µg/mL
reduction of metabolic activity of biofilm (MTT) (E. faecalis W1 [7]): ~50%
